Values quoted from earlier work as cited in PubChem BioAssay AID1259409 (Chemical Carcinogenesis Research Information System (CCRIS), 2018).

System: rodent chemically induced tumor inhibition, incidence and multiplicity
Assay: CCRIS tumor inhibitor studies
Conditions: Promoter: NONE USED

SMILES | tumour outcome (control, treated, inhibition, significance) (Carcinogen: 1,2-DIMETHYLHYDRAZINE DIHYDROCHLORIDE, 306-37-6, Dose [Inhibitor]: 50 MG/L TAP WATER DAILY FOR 32 WK STARTING SIMULTANEOUSLY WITH CARCINOGEN TREATMENT (STUDY DURATION: 32 WK), Route [Inhibitor]: ORAL, Species: RAT, Strain/Sex: SPRAGUE-DAWLEY/MALE, Target Tissue: Type of Lesion: LARGE INTESTINE: TUMOR, Dose [Carcinogen]: 20 MG/KG BW WEEKLY FOR 20 WK) | tumour outcome (control, treated, inhibition, significance) (Carcinogen: 1,2-DIMETHYLHYDRAZINE DIHYDROCHLORIDE, 306-37-6, Dose [Inhibitor]: 50 MG/L TAP WATER DAILY FOR 32 WK STARTING SIMULTANEOUSLY WITH CARCINOGEN TREATMENT (STUDY DURATION: 32 WK), Route [Inhibitor]: ORAL, Species: RAT, Strain/Sex: SPRAGUE-DAWLEY/MALE, Target Tissue: Type of Lesion: SMALL INTESTINE: TUMOR, Dose [Carcinogen]: 20 MG/KG BW WEEKLY FOR 20 WK) | tumour outcome (control, treated, inhibition, significance) (Carcinogen: URETHANE, 51-79-6, Dose [Inhibitor]: 0.05 UMOL/G BW GIVEN AT 6 HR INTERVALS FOR 36 HR AFTER CARCINOGEN TREATMENT (STUDY DURATION: 5 MO), Route [Inhibitor]: INTRAPERITONEAL, Species: MOUSE, Strain/Sex: ICR/FEMALE, Target Tissue: Type of Lesion: LUNG: PAPILLARY ADENOMA, Dose [Carcinogen]: 0.1 MG/G BW ONCE)
Cc1ccc(Cl)c(Nc2ccccc2C(=O)O)c1Cl | 88%, 90%, -2%, not significant | 46%, 35%, 24%, not significant | 
O=c1[nH]c(=O)c2[nH]cnc2[nH]1 |  |  | 31/59 (53%), 26/40 (65%), -23%, not significant
